Source: the NIST ThermoML archive (doi:10.1021/acs.jced.9b00306)
Numbers after ± are expanded uncertainties.

Conditions: Liquid, Ebulliometric method (Recirculating still)

**Q.** For OCCCCCCO [1,6-hexanediol], which “vapor or sublimation pressure” value (456.93 K) is on record?
**A.** 10 ± 1 kPa

**Q.** What about the “vapor or sublimation pressure” value (474.79 K) of the same compound?
**A.** 20 ± 1 kPa

**Q.** What about the “vapor or sublimation pressure” value (525.1 K) of the same compound?
**A.** 99 ± 1 kPa

**Q.** With COC(=O)CCCCC(=O)OC [dimethyl 1,6-hexanedioate] as the compound, how does the “vapor or sublimation pressure” value (424.91 K) read?
**A.** 7.79 ± 0.51 kPa

**Q.** What about the “vapor or sublimation pressure” value (431.2 K) of the same compound?
**A.** 10 ± 1 kPa

**Q.** And the “vapor or sublimation pressure” value (441.21 K)?
**A.** 14.56 ± 0.52 kPa

**Q.** And the “vapor or sublimation pressure” value (450.08 K)?
**A.** 20 ± 1 kPa

**Q.** And the “vapor or sublimation pressure” value (460.47 K)?
**A.** 28.55 ± 0.59 kPa

**Q.** What about the “vapor or sublimation pressure” value (474.33 K) of the same compound?
**A.** 44.63 ± 0.63 kPa

**Q.** What about the “vapor or sublimation pressure” value (480.72 K) of the same compound?
**A.** 54.37 ± 0.72 kPa

**Q.** What about the “vapor or sublimation pressure” value (488.62 K) of the same compound?
**A.** 68.77 ± 0.79 kPa

**Q.** And the “vapor or sublimation pressure” value (496.14 K)?
**A.** 85.45 ± 0.89 kPa

**Q.** What about the “vapor or sublimation pressure” value (501 K) of the same compound?
**A.** 99 ± 1 kPa

**Q.** And the “vapor or sublimation pressure” value (504.86 K)?
**A.** 108.77 ± 1 kPa

**Q.** And the “vapor or sublimation pressure” value (512 K)?
**A.** 131.95 ± 1.2 kPa

**Q.** And the “vapor or sublimation pressure” value (518.78 K)?
**A.** 157.68 ± 1.3 kPa

**Q.** What about the “vapor or sublimation pressure” value (523.92 K) of the same compound?
**A.** 179.21 ± 1.5 kPa

**Q.** What about the “vapor or sublimation pressure” value (531.44 K) of the same compound?
**A.** 216.3 ± 1.6 kPa

**Q.** Which “vapor or sublimation pressure” value (337.69 K) does the source give for CO [methanol] here?
**A.** 101.3 ± 1.6 kPa

**Q.** Which “vapor or sublimation pressure” value (373.15 K) does the source give for O [water] here?
**A.** 101.3 ± 1.6 kPa
